Laboratory results as given in patent US10781188B2, “Contrast agents” (BRACCO IMAGING S.P.A., priority 2015, dated 2020).

How the values were obtained:
[1] = Relaxivity r1p in physiologic solution (saline), 37° C.; assay type: physicochemical; details: for r1p at 0.47 T 37° C., saline: 0.47 T (20 MHz); for r1p at 1.41 T 37° C., saline: 1.41 T (60 MHz)
Method: (§1) The relaxometric properties of some representative complex compounds according to the invention have been determined at different magnetic field strengths, e.g. including 0.47 and 1.41 T, at 37° C. and in different media (physiologic solution and human plasma) and compared with relaxivity values measured, at the same conditions, for some Gd-Complex of the market having an analogous cyclic coordination cage.
(§2) The longitudinal water proton relaxation rate (R1=1/T1) was measured at 0.47 T with a Minispec MQ-20 spectrometer (Bruker Biospin, Germany) operating at a proton Larmor frequency of 20 MHz; MR experiments at 1.41 T were performed using a Minispec MQ-60 spectrometer (Bruker Biospin, Germany) operating at a proton Larmor frequency of 60 MHz.
(§3) All test articles were used as supplied and diluted in the selected medium (physiologic solution or human plasma) by weighting the required amount of paramagnetic chelated complex to get a 5 or 10 mM starting solution.
(§4) Five different concentration samples (0.1, 0.25, 0.5, 0.75 and 1 mM) for each medium have been prepared by further dilution of the starting 5 or 10 mM solution.
(§5) Relaxivity measurements were performed at 0.47 T and 1.41 T at a preset temperature sample of 37° C., kept constant by means of a thermostatic bath connected to the sample holder of the spectrometer. The five sample solutions have been preliminary pre-heated at 37° C. in an external thermostatic bath and then left 10 minutes inside the internal bath to assure the stabilization of the temperature. Longitudinal relaxation time T1 was measured by means of a standard inversion recovery sequence, where the inversion time (TI) was varied from 10 ms to at least 5 times T1 in 15 steps. Statistical analysis (mono-exponential fitting for T1 measurement, linear fitting for the evaluation of longitudinal relaxivity) was performed by Mathematica® (Wolfram, USA). Errors on the estimated parameters were evaluated by the fitting procedure.

[2] = Relaxivity r1p in human plasma, 37° C.; assay type: physicochemical; details: for r1p at 0.47 T 37° C., human plasma: 0.47 T (20 MHz); for r1p at 1.41 T 37° C., human plasma: 1.41 T (60 MHz)
Method: as §1, §2, §3, §4, §5

SMILES: O=C(O)CN1CCN(CC(=O)O)CCN(CC(O)CNCP(=O)(O)O)CCN(CC(=O)O)CC1 (centres unmarked) [Chelate Complex 2]
- r1p at 0.47 T 37° C., saline [1]: 7.0 mM⁻¹ s⁻¹
- r1p at 1.41 T 37° C., saline [1]: 6.5 mM⁻¹ s⁻¹
- r1p at 0.47 T 37° C., human plasma [2]: 8.5 mM⁻¹ s⁻¹
- r1p at 1.41 T 37° C., human plasma [2]: 7.5 mM⁻¹ s⁻¹

SMILES: O=C(O)CN1CCN(CC(=O)O)CCN(CC(O)CN2CC(CO)(CO)C(O)C(CO)(CO)C2)CCN(CC(=O)O)CC1 (centres unmarked) [Chelate Complex 5]
- r1p at 0.47 T 37° C., saline [1]: 7.7 mM⁻¹ s⁻¹
- r1p at 1.41 T 37° C., saline [1]: 7.7 mM⁻¹ s⁻¹
- r1p at 0.47 T 37° C., human plasma [2]: 9.6 mM⁻¹ s⁻¹
- r1p at 1.41 T 37° C., human plasma [2]: 8.9 mM⁻¹ s⁻¹

SMILES: O=C([O-])CN1CCN(CC(=O)O)CCN(CC(=O)O)CCN(CC(O)CNC(CCc2ccccc2)P(=O)(O)[O+]=[Na])CC1 (centres unmarked) [Chelate Complex 6]
- r1p at 0.47 T 37° C., saline [1]: 8.3 mM⁻¹ s⁻¹
- r1p at 1.41 T 37° C., saline [1]: 8.2 mM⁻¹ s⁻¹
- r1p at 0.47 T 37° C., human plasma [2]: 13.8 mM⁻¹ s⁻¹
- r1p at 1.41 T 37° C., human plasma [2]: 11.9 mM⁻¹ s⁻¹

SMILES: CCOP(=O)(O)CN(Cc1ccccc1)CC(O)CN1CCN(CC(=O)O)CCN(CC(=O)O)CCN(CC(=O)O)CC1 (centres unmarked) [Chelate Complex 8]
- r1p at 0.47 T 37° C., saline [1]: 7.4 mM⁻¹ s⁻¹
- r1p at 1.41 T 37° C., saline [1]: 7.3 mM⁻¹ s⁻¹
- r1p at 0.47 T 37° C., human plasma [2]: 10.2 mM⁻¹ s⁻¹
- r1p at 1.41 T 37° C., human plasma [2]: 9.0 mM⁻¹ s⁻¹

SMILES: O=C(O)CN1CCN(CC(=O)O)CCN(CC(O)CN(CC(=O)O)C(CO)CO)CCN(CC(=O)O)CC1 (centres unmarked) [Chelate Complex 13]
- r1p at 0.47 T 37° C., saline [1]: 5.8 mM⁻¹ s⁻¹
- r1p at 1.41 T 37° C., saline [1]: 5.9 mM⁻¹ s⁻¹
- r1p at 0.47 T 37° C., human plasma [2]: 7.5 mM⁻¹ s⁻¹
- r1p at 1.41 T 37° C., human plasma [2]: 7.1 mM⁻¹ s⁻¹

SMILES: O=C(O)CN1CCN(CC(=O)O)CCN(CC(O)CN(CCOCCO)CCOCCO)CCN(CC(=O)O)CC1 (centres unmarked) [Chelate Complex 14]
- r1p at 0.47 T 37° C., saline [1]: 6.9 mM⁻¹ s⁻¹
- r1p at 1.41 T 37° C., saline [1]: 6.5 mM⁻¹ s⁻¹
- r1p at 0.47 T 37° C., human plasma [2]: 8.8 mM⁻¹ s⁻¹
- r1p at 1.41 T 37° C., human plasma [2]: 8.0 mM⁻¹ s⁻¹

SMILES: O=C(O)CN1CCN(CC(=O)O)CCN(CC(O)CN(CC(=O)O)C2CCCCC2)CCN(CC(=O)O)CC1 (centres unmarked) [Chelate Complex 19]
- r1p at 0.47 T 37° C., saline [1]: 6.5 mM⁻¹ s⁻¹
- r1p at 1.41 T 37° C., saline [1]: 6.1 mM⁻¹ s⁻¹
- r1p at 0.47 T 37° C., human plasma [2]: 9.1 mM⁻¹ s⁻¹
- r1p at 1.41 T 37° C., human plasma [2]: 8.05 mM⁻¹ s⁻¹

SMILES: CN(CC(O)CN1CCN(CC(=O)O)CCN(CC(=O)O)CCN(CC(=O)O)CC1)CC(O)C(O)C(O)C(O)CO (centres unmarked) [Chelate Complex 21]
- r1p at 0.47 T 37° C., saline [1]: 6.1 mM⁻¹ s⁻¹
- r1p at 1.41 T 37° C., saline [1]: 6.1 mM⁻¹ s⁻¹
- r1p at 0.47 T 37° C., human plasma [2]: 8.5 mM⁻¹ s⁻¹
- r1p at 1.41 T 37° C., human plasma [2]: 8.3 mM⁻¹ s⁻¹

SMILES: NCC(O)CN1CCN(CC(=O)O)CCN(CC(=O)O)CCN(CC(=O)O)CC1 (centres unmarked) [Comparative 1, reference compound]
- r1p at 0.47 T 37° C., saline [1]: 4.3 mM⁻¹ s⁻¹
- r1p at 1.41 T 37° C., saline [1]: 3.8 mM⁻¹ s⁻¹
- r1p at 0.47 T 37° C., human plasma [2]: 6.25 mM⁻¹ s⁻¹
- r1p at 1.41 T 37° C., human plasma [2]: 5.3 mM⁻¹ s⁻¹

SMILES: O=C(O)CN1CCN(CC(=O)O)CCN(CC(=O)O)CCN(CC(=O)O)CC1 [Doratem ®, Gd-DOTA, reference compound]
- r1p at 0.47 T 37° C., saline [1]: 3.6 mM⁻¹ s⁻¹
- r1p at 1.41 T 37° C., saline [1]: 3.2 mM⁻¹ s⁻¹
- r1p at 0.47 T 37° C., human plasma [2]: 4.5 mM⁻¹ s⁻¹
- r1p at 1.41 T 37° C., human plasma [2]: 3.6 mM⁻¹ s⁻¹

SMILES: CC(O)CN1CCN(CC(=O)O)CCN(CC(=O)O)CCN(CC(=O)O)CC1 (centres unmarked) [ProHance ®, Gd-HPDO3A, reference compound]
- r1p at 0.47 T 37° C., saline [1]: 3.5 mM⁻¹ s⁻¹
- r1p at 1.41 T 37° C., saline [1]: 3.1 mM⁻¹ s⁻¹
- r1p at 0.47 T 37° C., human plasma [2]: 4.9 mM⁻¹ s⁻¹
- r1p at 1.41 T 37° C., human plasma [2]: 4.15 mM⁻¹ s⁻¹
